Here are results for six compounds from PMC6748986, “Potent modulation of the CepR quorum sensing receptor and virulence in a Burkholderia cepacia complex member using non-native lactone ligands” (Scientific Reports, 2019).

As usually defined, the pIC50 is −log10 of the IC50, conventionally taken in molar units. A word on the pEC50: it is the EC50 on a negative log10 scale, so that one unit is a factor of ten.

In assay [1] the test system is CepR. The arrangement: method as in PMID 15978077. Conditions: at concentrations greater than 1 μM; cited from earlier work.
Assay [2] addresses T1, CepR (Burkholderia multivorans, UniProt Q93PF7).
T1 sequence (Q93PF7 1-239): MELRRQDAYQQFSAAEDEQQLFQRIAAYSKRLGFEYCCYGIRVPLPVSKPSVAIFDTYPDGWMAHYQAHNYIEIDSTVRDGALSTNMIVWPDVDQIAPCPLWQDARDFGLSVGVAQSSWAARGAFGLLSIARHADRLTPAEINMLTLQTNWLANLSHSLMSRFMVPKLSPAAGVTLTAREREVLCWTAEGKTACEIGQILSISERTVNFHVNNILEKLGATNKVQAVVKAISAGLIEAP
Put plainly: CepR antagonism in B. multivorans cepI::lacZ reporter (Bm-reporter), competition against C8-AHL. Conditions: for Maximal Inhibition (%): Bm-reporter, against 5 nM C8-AHL; for Inh% (100-Act%): screening conc. 100 μM. The assay is classed as cell-based. From the text: (§1) We next sought to assess if the CepR modulators identified in the Ec-reporter maintained their activities in a member of the Bcc. For these studies, we generated a B. multivorans cepI::lacZ reporter organism (Bm-reporter) using standard allelic exchange methods (see Methods). Along with B. cenocepacia, B. multivorans is one of the most commonly isolated Bcc members[6],[44]. We note that small molecules must contend with a different cellular environment in the native organism relative to E. coli[48]; however, as both CepR and the cepI promoter are highly conserved among Bcc species (Fig. S3), we reasoned that the majority of compounds identified in the Ec-reporter (containing B. cenocepacia versions of the cepI promoter and the cepR gene) would maintain their relative activity profiles in CepR in B. multivorans. […] Similar to the Ec-reporter, CepR binding to the cepI promoter then induces β-galactosidase production, allowing for the quantitation of CepR activity. Using the Bm-reporter organism, we observed robust activity for CepR in response to C8-AHL (EC50 = 0.7 nM, Table 3).
(§2) The B. multivorans cepI::lacZ strain was used to obtain dose-response data for CepR in response to synthetic AHLs. Overnight cultures of B. multivorans cepI::lacZ were grown in LB medium at 37 °C with shaking (225 rpm). Aliquots (200 μL) of a 1:10 dilution of this overnight culture were plated into 96-well plates containing varying concentrations of compound, and then grown for 4 h at 37 °C with shaking (225 rpm). β-galactosidase production was measured as described above for E. coli, with the following changes: permeabilized cells were incubated at 25 °C with substrate CPRG for ~10 min until positive control wells developed a deep red color. For agonism assays, synthetic compound was screened alongside and compared to the native ligand, C8-AHL (100 μM). For antagonism assays, the concentration of native ligand utilized was 5 nM (approximately equal to twice its EC50 value).

The target of assay [3] is T2, CepR (Burkholderia cenocepacia, UniProt B4EMD0).
T2 sequence (B4EMD0 1-239): T1 sequence (Q93PF7 1-239) with R5W, S51A, H69Q, S84N, Q95R, A97D
Put plainly: CepR antagonism in E. coli β-galactosidase reporter (Ec-reporter), competition against C8-AHL. In kind it is cell-based, B. cenocepacia. Conditions: against 10 nM C8-AHL; for pIC50 / Maximal Inhibition (%): Ec-reporter; for Inh% (100-Act%): Table S3, Ec-reporter, screening conc. 100 μM. A digest of the protocol:
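CepR antagonism was measured in E. coli JLD271 (∆sdiA) carrying pJN105-cepR, which expresses B. cenocepacia CepR from an arabinose-inducible pBAD promoter, and pSC11-cepI, which fuses lacZ to the cepI promoter. Induced cells were grown 4 h with compound and 10 nM C8-AHL. β-Galactosidase activity was then read by CPRG cleavage at 37 °C after Z Buffer permeabilization.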

The target of assay [4] is T2, CepR. In words: CepR agonism in E. coli β-galactosidase reporter (Ec-reporter) JLD271 [pJN105-cepR + pSC11-cepI]. In kind it is cell-based, B. cenocepacia. Conditions: for Act%: Table S2, Ec-reporter, screening conc. 100 μM. A digest of the protocol: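 E. coli JLD271 (ΔsdiA) carrying arabinose-inducible CepR (27 mM L-arabinose) and cepI-lacZ fusion, grown 4 h with compound; β-galactosidase measured by CPRG cleavage at 37 °C (~30 min), normalized to OD600. Agonism compared with C8-AHL at 100 μM; screen at 100 μM or solubility limit, then dose-response; ≥3 trials.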

Assay [5] concerns the target T1, CepR. Put plainly: CepR agonism in B. multivorans cepI::lacZ reporter (Bm-reporter). The assay is classed as cell-based. Conditions: Table S4, Bm-reporter; screening conc. 100 μM.
Source text: as §1, §2

The structures appear in SMILES notation. Changes are numbered by the printed parent chain. pEC50, pIC50: −log10 of the molar value.

Take `C#CCCCC(=O)NC1CCOC1=O` (stereo not drawn) [5-hexynoyl-HL]: the “Effect on CepR” value in assay [1] is “slight inhibitory effects”.
`CCCCCC(=O)N[C@H]1CCOC1=O` [Compound C6-AHL, hexanoyl L-homoserine lactone, reference compound]: in assay [1], the “Effect on CepR” value is “slight inhibitory effects”. The “Maximal Inhibition (%)” value in assay [2] is 20%. Also, in assay [3], the pIC50 was 5.12 and the “Maximal Inhibition (%)” value came out at 83%. For the same compound, the pEC50 in assay [4] (Ec-reporter, agonism dose-response) was not above 4.70. The “Maximal Activation (%)” value in assay [4] (Ec-reporter, activity for 100 μM C8-AHL set to 100%, error ±10%) is 87%. Moreover, the Act% in assay [4] turned out to be 87%.
Take `O=C(Cc1cccc(I)c1)N[C@H]1CCOC1=O` [Compound C11]: the Act% came out at 2.3% in assay [5] and 43% in assay [4]. For the same compound, in assay [2] (Table S5, Bm-reporter, read-out: IC50), the pIC50 was 5.80. The “Inh% (100-Act%)” value is 80% in assay [2] (Table S5, Bm-reporter) and 27% in assay [3].
As to `O=C(Cc1ccc(F)c(C(F)(F)F)c1)N[C@H]1CCOC1=O` [Compound E10], the Act% in assay [5] is given as 11%; in assay [4] it was 13%. For the same compound, the “Maximal Inhibition (%)” value amounted to 21% in assay [2] and 79% in assay [3]. In assay [3], the pIC50 was 6.37.
Take `CCCCCCCCCC(=O)CC(=O)Nc1ccccc1O` [Control 14, reference compound]: the “Inh% (100-Act%)” value in assay [2] (Table S5, Bm-reporter) is 25%; in assay [3], 30%. Also, the Act% in assay [4] is on record as 30%.
For `O=C(Nc1ccccc1NC(=O)c1cccc(Cl)c1)c1cccc(Cl)c1` [TP-5, reference compound], the “Inh% (100-Act%)” value in assay [2] (Table S5, Bm-reporter) was determined as 15%; in assay [3] it was 24%. The Act% in assay [4] is given as 0.4%.
